Patent US20090264415A2 (priority 2004, published 2009)
Read-outs that look alike come from different tables or passages of the source.

Experiments:
[1] = tested on: production of human TNF-α by PBMC in response to LPS; assay: TNF-α assay (LPS-stimulated PBMC, sandwich ELISA); type: cell-based
Method: Peripheral blood mononuclear cells (herein referred as PBMC), in response to stimulation by lipopolysaccharide (hereinafter LPS), a gram-negative bacterial endotoxin, produce various […], in particular human TNF-α. Inhibition of the activation of PBMC can therefore be measured by the level of suppression of the production of TNF-α by PBMC in response to stimulation by LPS. Inhibition measurement was performed as follows: PBMC were isolated from heparinized peripheral blood by density gradient centrifugation over Lymphoprep (commercially available from Nycomed, Norway). LPS was then added to the PMBC suspension in complete medium (10^6 cells/ml) at a final concentration of 1 μg/ml. The pteridine derivative to be tested was added at different concentrations (0.1 μM, 1 μM and 10 μM) and the cells were incubated at 37° C. for 72 hours in 5% CO2. The supernatants were collected, then TNF-α concentrations were measured with respectively an anti-TNF-α antibody in a sandwich ELISA (Duo Set ELISA human TNFα, commercially available from R&D Systems, United Kingdom). The colorimetric reading of the ELISA was measured by a Multiskan RC plate reader (commercially available from ThermoLabsystems, Finland) at 450 nm (reference wavelength: 690 nm). Data analysis was performed with Ascent software 2.6. (also from ThermoLabsystems, Finland): a standard curve (recombinant human TNFα) was drawn and the amount (pg/ml) of each sample on the standard curve was determined. The % suppression of human TNFα production by the pyrido[3,2-d]pyrimidine derivatives of the invention was calculated using the formula: [formula]

[2] = tested on: peripheral blood mononuclear cells (PBMC) stimulated with allogeneic PBMC or EBV-transformed human B cells (RPMI1788); assay: Mixed lymphocyte reaction (MLR) assay; type: cell-based
Outline: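 Compounds, held as 10 mM DMSO stocks and diluted in culture medium, were added to PBMC stimulated by 30 Gy-irradiated allogeneic PBMC or RPMI1788 cells. Proliferation was read as [3H]-thymidine uptake (1 μCi, final 16 h) after 5 days at 37° C. Inhibition was derived from cpm.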

[3] = Homo sapiens, PBMC, LPS 1 μg/ml, 72 hours, read-out: TNF α
[4] = Homo sapiens, RPMI-1788, 50% suppression of the MLR, [3H]-thymidine incorporation, read-out: MLR
[5] = LPS 1 μg/ml, 72 hours, read-out: TNF α
[6] = 50% suppression of the MLR, [3H]-thymidine incorporation, read-out: MLR

| SMILES | IC50 [1, 3] [µM] | IC50 [2, 4] [µM] | IC50 [1, 5] [µM] | IC50 [2, 6] [µM] | further results |
| --- | --- | --- | --- | --- | --- |
| COc1ccc(-c2ccc3nc(N)nc(NCCCNC(=O)Nc4cccc(C)c4)c3n2)cc1OC [Example 262, 2-amino-4-[(3-methylphenylcarbamoyl)-3-aminopropane-amino-1-N-yl]-6-(3,4-dimethoxyphenyl)-pyrido[3,2-d]pyrimidine] | 6.9 | 0.5 |  |  |  |
| COc1ccc(-c2ccc3nc(OC(C)CN4CCCC4)nc(N4CCN(C(=O)Nc5cccc(C)c5)CC4)c3n2)cc1OC (centres unmarked) [Example 17] |  |  | 5.2 | 2.7 |  |
| Cc1noc(C)c1-c1ccc2nc(N)nc(N3CCOCC3)c2n1 [Example 246, 2-amino-4-morpholino-6-[4-(3,5-dimethylisoxazolyl)]-pyrido[3,2-d]pyrimidine] |  |  | 1.6 | 5.5 |  |
| CC(=O)N1CCN(c2nc(N)nc3ccc(-c4ccc5c(c4)OCCO5)nc23)CC1 [Example 199, 2-amino-4-[N-acetyl-piperazin-1-yl]-6-(1,4-benzodioxane)-pyrido[3,2-d]pyrimidine] | 2.9 | 4.8 |  |  |  |
| COc1ccc(-c2ccc3nc(N)nc(Nc4cccc(Br)c4)c3n2)cc1OC [Example 29, 2-amino-4-(3-bromo-anilino)-6-(3,4-dimethoxyphenyl)pyrido[3,2-d]-pyrimidine] | 0.8 | 0.7 |  |  |  |
| COc1ccc(-c2ccc3nc(N)nc(NC4CCCN(C(=O)OCc5ccccc5)C4)c3n2)cc1OC (centres unmarked) [Example 258, 2-amino-4-[(1-Cbz-piperidin-3-yl)amino]-6-(3,4-dimethoxyphenyl)-pyrido[3,2-d]pyrimidine] | 0.3 | 0.9 |  |  |  |
| COc1ccc(-c2ccc3nc(N)nc(OCCOc4ccccc4)c3n2)cc1OC [Example 25, 2-amino-4-(2-phenoxyethoxy)-6-(3,4-dimethoxyphenyl)-pyrido[3,2-d]pyrimidine] | 0.7 | 0.3 |  |  |  |
| COc1ccc(-c2ccc3nc(N)nc(SC)c3n2)cc1OC [Example 223, 2-amino-4-thiomethyl-6-(3,4-dimethoxyphenyl)-pyrido[3,2-d]pyrimidine] |  |  | 0.8 | 0.9 |  |
| COc1ccc(-c2ccc3ncnc(N4CCN(CCOc5ccccc5)CC4)c3n2)cc1OC [Example 5, 4-[(2-phenoxyethyl)-piperazin-1-yl]-6-(3,4-dimethoxyphenyl)-pyrido[3,2-d]pyrimidine] |  |  | 0.65 | 0.1 |  |
| COc1ccc(-c2ccc3nc(N)nc(N4CCN(Cc5ccccc5)CC4)c3n2)cc1OC [Example 52, 2-amino-4-(1-benzylpiperazin-1-yl)-6-(3,4-dimethoxyphenyl)-pyrido[3,2-d]pyrimidine] |  |  | 0.46 | 0.8 |  |
| COc1ccc(-c2ccc3nc(N)nc(NCC(=O)N4CCN(Cc5ccccc5)CC4)c3n2)cc1OC [Example 271, 2-amino-4-[2-(4-benzylpiperazin-1-yl)-2-oxo-ethane-amino]-6-(3,4-dimethoxyphenyl)-pyrido[3,2-d]pyrimidine] | 0.5 | 0.7 |  |  |  |
| COc1ccc(-c2ccc3nc(N)nc(NC4CCCN(C(=O)Nc5cccc(C)c5)C4)c3n2)cc1OC (centres unmarked) [Example 264, 2-amino-4-[(3-methylphenylcarbamoylpiperidin-3-yl)amino)-6-(3,4-dimethoxyphenyl]-pyrido[3,2-d]pyrimidine] | 1.8 | 0.5 |  |  |  |
| COc1ccc(-c2ccc3nc(N)nc(NCC(OC)OC)c3n2)cc1OC [Example 34, 2-amino-4-(2,2-dimethoxyethylamino)-6-(3,4-dimethoxyphenyl)pyrido[3,2-d]pyrimidine] |  |  |  |  | IC50 ([1]; Homo sapiens, PBMC, 72 h, read-out: TNF α (μM)): 0.6 µM; IC50 ([2]; Homo sapiens, RPMI-1788, read-out: MLR (μM)): 0.8 µM |
| Nc1nc(N2CCOCC2)c2nc(-c3cccs3)ccc2n1 [Example 238, 2-amino-4-morpholino-6-(2-thienyl)-pyrido[3,2-d]pyrimidine] | 2.8 | 0.8 |  |  |  |
| CCOc1ccc(-c2ccc3nc(N)nc(N4CCN(C(=O)Nc5ccc(F)cc5)CC4)c3n2)cc1OC [Example 102] |  |  | 0.6 | 0.04 |  |
| Nc1nc(N2CCOCC2)c2nc(-c3cccnc3)ccc2n1 [Example 240, 2-amino-4-morpholino-6-(3-pyridinyl)-pyrido[3,2-d]pyrimidine] | 0.7 | 1.3 |  |  |  |
| COc1ccc(-c2ccc3ncnc(N4CCNCC4)c3n2)cc1OC [Example 107, 4-(N-piperazin-1-yl)-6-(3,4-dimethoxyphenyl)-pyrido[3,2-d]-pyrimidine] |  |  | 2.7 | 3.8 |  |
| COc1ccc(-c2ccc3nc(N)nc(N4CCN(C(=O)Nc5cc(Cl)nc(Cl)c5)CC4)c3n2)cc1OC [Example 55, 2-amino-4(N-2,6-dichloro-pyridinyl-carbamoyl-piperazin-1-yl)-6-(3,4-dimethoxyphenyl)-pyrido[3,2-d]pyrimidine] |  |  | 0.4 | 0.3 |  |
| Nc1nc(N2CCOCC2)c2nc(-c3ccco3)ccc2n1 [Example 232, 2-amino-4-morpholino-6-(2-furan)-pyrido[3,2-d]pyrimidine] |  |  | 5.3 | 5.3 |  |
| Cc1cccc(NC(=O)N2CCN(c3nc(N)nc4ccc(-c5ccc6c(c5)OCO6)nc34)CC2)c1 [Example 196, 2-amino-4-[N-(3-methyl-phenyl-carbamoyl)-piperazin-1-yl]-6-(3,4-methylenedioxyphenyl)-pyrido[3,2-d]pyrimidine] | 5.3 | 0.03 |  |  |  |
| COc1cc(-c2ccc3nc(N)nc(N4CCN(C(=O)Nc5ccc(F)cc5)CC4)c3n2)ccc1O [Example 101, 2-amino-4-[(N-4-fluoro-phenyl-carbamoyl)-piperazin-1-yl]-6-(4-hydroxy-3-methoxy-phenyl)-pyrido[3,2-d]pyrimidine] |  |  | 0.6 | 0.5 |  |
| Nc1nc(N2CCOCC2)c2nc(-c3ccc(F)c(F)c3)ccc2n1 [Example 243, 2-amino-4-morpholino-6-(3,4-difluorophenyl)-pyrido[3,2-d]pyrimidine] | 6 | 2.3 |  |  |  |
| COc1ccc(-c2ccc3nc(N)nc(N4CCCN(C(=O)Nc5cccc(C)c5)CC4)c3n2)cc1OC [Example 250, 2-amino-4-[(N-3-methylphenylcarbamoyl)-homopiperazin-1-yl]-6-(3,4-dimethoxyphenyl)-pyrido[3,2-d]pyrimidine] | 0.6 | 0.0085 |  |  |  |
| CCOc1ccc(-c2ccc3nc(N)nc(N4CCOCC4)c3n2)cc1OC [Example 97, 2-amino-4-(N-morpholino)-6-(4-ethoxy-3-methoxyphenyl)-pyrido[3,2-d]pyrimidine] |  |  | 0.3 | 0.5 |  |
| COc1ccc(-c2ccc3nc(N)nc(N4CCOCC4)c3n2)cc1Cl [Example 164, 2-amino-4-(morpholino)-6-(3-chloro-4-methoxyphenyl)pyrido[3,2-d]pyrimidine] | 1.5 | 0.6 |  |  |  |
| COc1ccc(-c2ccc3nc(N)nc(NC4CCN(C(=O)OC(C)(C)C)CC4)c3n2)cc1OC [Example 255, 2-amino-4-[(1-Boc-piperidin-4-yl)amino]-6-(3,4-dimethoxyphenyl)-pyrido[3,2-d]pyrimidine] | 0.04 | 0.06 |  |  |  |
| COc1ccc(-c2ccc3nc(N)nc(N4CCOCC4)c3n2)cc1C [Example 163, 2-amino-4-(morpholino)-6-(3-methyl-4-methoxyphenyl)pyrido[3,2-d]pyrimidine] | 6.5 | 3.6 |  |  |  |
| Nc1nc(N2CCOCC2)c2nc(-c3ccccc3Br)ccc2n1 [Example 210, 2-amino-4-morpholino-6-(2-bromo-phenyl)-pyrido[3,2-d]pyrimidine] | 7.2 | 1.8 |  |  |  |
